Test results reported in US20120302573A1, “METHODS OF INHIBITING PRO MATRIX METALLOPROTEINASE ACTIVATION” (priority 2011, published 2012).

Molecular target: T1, proMMP9 (Homo sapiens, UniProt P14780)
T1 construct: host or cells: HFL-1
Assay: Activation of proMMP9 by human fetal lung fibroblast (HFL-1) cultures (Western blot)
Format: cell-based
Settings: 3.3 μM, 72 hrs, mAb-L51/82
Protocol: Compound α was assessed additionally for ability to block the maturation of proMMP9 to active MMP9 in cultures of human fetal lung fibroblasts (HFL-1, American Type Culture Collection #CCL-153). Unlike rat synoviocytes, HFL-1 cells were unable to process proMMP9 to the active form without addition of neutrophil elastase. […] Rather, the function of elastase in this assay may be to inactivate tissue inhibitors of matrix metalloproteinases (TIMPs) that repress endogenous pathways of MMP9 activation (Am J Respir Crit Care Med; 1999; 159:1138-46).
HLF-1 were maintained in monolayer culture in DMEM with 10% FCS and were used between passage numbers 5-15. HLF-1 were embedded in collagen gels as described for rat SCW synoviocytes (vida supra). […] The plates were cultured an additional 72 hrs, at which time MMP9 secreted into the conditioned media was bound to gelatin-sepharose and evaluated by Western blot analysis as described for the rat synoviocyte cultures (vida supra). mAb-51/82 detected three forms of MMP9 in HFL-1 cultures. […]
A second experiment was performed to determine if the 80 kD form was mature active MMP9 and to determine the potency of Compound α as an inhibitor of MMP9 maturation in this assay. […] In the absence of Compound α, pAb-1246 readily detected MMP9 with an electrophoretic mobility of approximately 80 kD. […]

T1 sequence (P14780 20-707 limits assumed): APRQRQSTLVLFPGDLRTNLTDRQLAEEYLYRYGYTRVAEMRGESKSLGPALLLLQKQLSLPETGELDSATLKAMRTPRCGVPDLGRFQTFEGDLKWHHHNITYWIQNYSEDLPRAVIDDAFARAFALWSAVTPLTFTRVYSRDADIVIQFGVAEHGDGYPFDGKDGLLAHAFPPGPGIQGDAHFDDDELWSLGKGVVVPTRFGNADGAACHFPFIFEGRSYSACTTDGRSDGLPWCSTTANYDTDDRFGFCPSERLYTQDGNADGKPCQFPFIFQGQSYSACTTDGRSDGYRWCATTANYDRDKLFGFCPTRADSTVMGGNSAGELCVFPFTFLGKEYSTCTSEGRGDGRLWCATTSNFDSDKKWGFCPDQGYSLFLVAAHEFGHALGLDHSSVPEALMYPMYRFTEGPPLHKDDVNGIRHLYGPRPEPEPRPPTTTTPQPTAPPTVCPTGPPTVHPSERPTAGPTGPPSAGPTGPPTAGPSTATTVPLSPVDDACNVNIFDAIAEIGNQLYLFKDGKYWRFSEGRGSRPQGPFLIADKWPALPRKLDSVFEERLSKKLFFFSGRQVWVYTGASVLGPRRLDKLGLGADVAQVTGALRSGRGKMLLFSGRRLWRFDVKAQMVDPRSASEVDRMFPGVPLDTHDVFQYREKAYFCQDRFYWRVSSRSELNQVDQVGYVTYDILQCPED

Signal Total: 91346 INT*mm^2
SMILES: Cc1nc(C)c(-c2csc(Nc3cc(S(N)(=O)=O)ccc3OC(C)C)n2)s1 [Compound α, 3-(2′,4′-Dimethyl-[4,5′]bithiazolyl-2-ylamino)-4-isopropoxy-benzenesulfonamide.HBr]
